According to ChEMBL document CHEMBL6153118, “Structure Optimization of Natural Product Catalpol to Obtain Novel and Potent Analogs against Heart Failure” (J Med Chem, 2025):
Activity calls are given as the source filed them. No cut-off for these calls is given here.

How the values were obtained:
Cardiac muscle cell = assay: Cytoprotective activity against OGD-induced myocardial ischemic injury in neonatal rat primary cardiomyocytes assessed as decrease in cellular damage at 1 uM preincubated for 12 hrs followed by exposure to OGD condition for 3 hrs; assay type: functional, cell-based; details: time 15.0 hrs
[1] = Metabolic stability in mouse liver microsomes assessed as half life measured for 5 to 60 mins in presence of NADPH by LC-MS/MS analysis; assay type: ADME, Microsome; details: time 5-60 min
Mus musculus [2] = assay: Inhibition of cardiomyocyte hypertrophy in ISO-induced heart failure C57BL/6J mouse at 5 to 20 mg/kg/day, po for 14 days by WGA staining based analysis; assay type: functional, organism-based; details: dose 5-20 mg/kg/day, time 14.0 day
Mus musculus [3] = assay: Inhibition of cardiomyocyte hypertrophy in ISO-induced heart failure C57BL/6J mouse assessed as decrease in PI3K phosphorylation in heart tissue administered orally daily for 14 days by Western blot analysis; assay type: functional, organism-based; details: dose 5-20 mg/kg/day, route po, time 14.0 day
CYP2C9 = CYP2C9 (Homo sapiens, UniProt P11712); assay: Inhibition of CYP2C9 in human liver microsomes preincubated for 10 mins followed by NADPH addition measured after 10 mins by LC/MS/MS analysis relative to control; assay type: ADME, Microsome; details: time 20 min
Chain of CYP2C9 (P11712 whole entry): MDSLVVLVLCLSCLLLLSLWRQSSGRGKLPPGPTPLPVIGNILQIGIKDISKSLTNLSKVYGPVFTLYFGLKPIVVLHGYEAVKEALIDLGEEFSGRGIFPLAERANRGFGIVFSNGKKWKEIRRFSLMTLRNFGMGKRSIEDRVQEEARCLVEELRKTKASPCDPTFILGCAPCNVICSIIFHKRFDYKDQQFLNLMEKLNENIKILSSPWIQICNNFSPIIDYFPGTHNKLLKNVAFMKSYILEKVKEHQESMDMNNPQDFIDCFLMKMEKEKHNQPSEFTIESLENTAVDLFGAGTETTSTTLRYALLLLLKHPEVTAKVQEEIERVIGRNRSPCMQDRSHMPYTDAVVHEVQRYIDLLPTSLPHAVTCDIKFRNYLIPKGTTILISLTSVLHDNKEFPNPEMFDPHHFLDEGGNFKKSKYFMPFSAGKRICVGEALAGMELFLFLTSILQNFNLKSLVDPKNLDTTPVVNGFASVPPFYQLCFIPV

Mus musculus [4] = assay: Inhibition of cardiomyocyte hypertrophy in ISO-induced heart failure C57BL/6J mouse assessed as decrease in ratio of p-PI3K to PI3K levels in heart tissue administered orally daily for 14 days by Western blot analysis; assay type: functional, organism-based; details: dose 5-20 mg/kg/day, route po, time 14.0 day
Mus musculus [5] = assay: Inhibition of cardiomyocyte hypertrophy in ISO-induced heart failure C57BL/6J mouse at 5 to 20 mg/kg/day, po for 14 days; assay type: functional, organism-based; details: dose 5-20 mg/kg/day, time 14.0 day
Mus musculus [6] = assay: Inhibition of cardiomyocyte hypertrophy in ISO-induced heart failure C57BL/6J mouse assessed as decrease in ratio of p-AKT to AKT levels in heart tissue administered orally daily for 14 days by Western blot analysis; assay type: functional, organism-based; details: dose 5-20 mg/kg/day, route po, time 14.0 day
[7] = Toxicity in C57BL/6J mouse assessed as change in relative organ weights at 400 mg/kg, po administered as single dose measured for 7 days; assay type: organism-based; details: in vivo, 168 h, time 7 day
[8] = Oral bioavailability in C57/6J mouse at 20 mg/kg measured for 24 hrs; assay type: ADME, organism-based; details: in vivo
H9c2 [9] = assay: Inhibition of cardiomyocyte hypertrophy in ISO-treated rat H9c2 cells at 50 uM preincubated for 12 hrs followed by ISO treatment for 36 hrs by FITC-Phalloidin staining based analysis; assay type: functional, cell-based; details: time 48.0 hrs
Mus musculus [10] = assay: Cardioprotective activity in ISO-induced heart failure C57BL/6J mouse assessed as fractional shortening in heart at 20 mg/kg/day, po for 14 days by echocardiography (reference value: 24.49 +/- 1.49 %); assay type: functional; details: time 14 day
H9c2 [11] = assay: Cytoprotective activity against OGD-induced myocardial ischemic injury in rat H9c2 cells assessed as decrease in LDH level at 5 to 50 uM preincubated for 12 hrs followed by exposure to OGD condition for 3 hrs by UV absorption analysis; assay type: functional, cell-based; details: dose 5-50 µM, time 15.0 hrs
[12] = Toxicity in C57BL/6J mouse assessed as animal mortality at 400 mg/kg, po administered as single dose measured for 7 days; assay type: organism-based; details: in vivo, 168 h, time 7 day
Mus musculus [13] = assay: Inhibition of cardiomyocyte hypertrophy in ISO-induced heart failure C57BL/6J mouse assessed as decrease in AKT phosphorylation in heart tissue administered orally daily for 14 days by Western blot analysis; assay type: functional, organism-based; details: dose 5-20 mg/kg/day, route po, time 14.0 day
Mus musculus [14] = assay: Improvement in motor ability in ISO-induced heart failure C57BL/6J mouse assessed as increase in grip strength at 5 to 20 mg/kg/day, po for 14 days; assay type: functional, organism-based; details: dose 5-20 mg/kg/day, time 14.0 day
H9c2 [15] = assay: Inhibition of apoptosis in ISO-treated rat H9c2 cells by Annexin V-FITC/PI staining based flow cytometry; assay type: functional, cell-based; details: dose 5-50 µM
Mus musculus [16] = assay: Inhibition of cardiomyocyte hypertrophy in ISO-induced heart failure C57BL/6J mouse assessed as decrease in ratio of p-GSK-3beta to GSK-3beta levels in heart tissue administered orally daily for 14 days by Western blot analysis; assay type: functional, organism-based; details: dose 5-20 mg/kg/day, route po, time 14.0 day
[17] = Metabolic stability in human liver microsomes assessed as intrinsic clearance measured for 5 to 60 mins in presence of NADPH by LC-MS/MS analysis; assay type: ADME, Microsome; details: time 5-60 min, read-out: CLH
Mus musculus [18] = assay: Cardioprotective activity in ISO-induced heart failure C57BL/6J mouse assessed as ejection fraction in heart at 20 mg/kg/day, po for 14 days by echocardiography (reference value: 49.55 +/- 2.41 %); assay type: functional; details: time 14 day

OC[C@H]1O[C@@H](O[C@@H]2OC=C[C@H]3[C@H](O)[C@@H]4O[C@]4(COc4ccc(C(F)(F)F)cc4)[C@@H]23)[C@H](O)[C@@H](O)[C@@H]1O
Activity (Cardiac muscle cell): Active; Exhibited Moderate Effect | half-life [1]: > 2.42 h | inhibition (Mus musculus [2]): Active | inhibition (Mus musculus [3]): Dose-dependent-effect | inhibition at 10 min (CYP2C9): 6.3% | inhibition (Mus musculus [4]): Dose-dependent-effect | inhibition (Mus musculus [5]): Active; Exhibited Pronounced Therapeutic Effect Compared To Catal-Pol | inhibition (Mus musculus [6]): Dose-dependent-effect | Activity [7]: Non-toxic | bioavailability [8]: 41.8% | inhibition (H9c2 [9]): Active | Activity (Mus musculus [10]): 31.27% | Activity (H9c2 [11]): Active | Activity [12]: Non-toxic | inhibition (Mus musculus [13]): Dose-dependent-effect | Activity (Mus musculus [14]): Active | inhibition (H9c2 [15]): Active; Exhibited Significantly Greater Decrease In Apoptotic Rate | inhibition (Mus musculus [16]): Dose-dependent-effect | CLint scaled [17]: < 8.6 mL/min/kg | Activity (Mus musculus [18]): 58.46%
